The subject of one data set is HT29 (R273H). The data set is described as follows: Cell viability assay (CellTiterGlo), HT29. Type of data set: cell-based, human. The following applies: Homo sapiens, HT-29; 72 h, CellTiterGlo. In short, it runs like this: (§1)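 Cells (6 × 10^3/well) were exposed to a range of compound concentrations or DMSO for 72 h, and viability was read by CellTiterGlo luminescence on an IVIS imager. Percent viability was calculated against each line's DMSO control, and IC50 was taken from sigmoidal dose-response curves.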

Data set [1] deals with HFF-1 (human foreskin fibroblast cell with wild-type p53). Nature of the data set: Cell viability assay (CellTiterGlo), HFF-1 normal cells. It is filed as cell-based. The method in brief: as §1
For data set [2], the system named is MRC5 (human lung fibroblast cell with wild-type p53). The data set is described as follows: Cell viability assay (CellTiterGlo), MRC5 normal cells. The following applies: Homo sapiens, MRC5, 72 h, read-out: IC50 values, MRC5 (WT). It is filed as cell-based. As for the experimental part:
(§2) Figure 1 PG3 inhibits cell proliferation and growth in a p53-indepent manner. (A–E) Cell viability assay, dose response curves and IC50 value measurements in a panel of cancer cell lines and normal cells. Cells were treated with different concentrations of PG3, PG3-Oc (Oc), obatoclax (Ob), prodigiosin (P) or DMSO for 72 h. Luciferase activity was imaged by the IVIS Imaging System after treatment. Cell viability data were normalized to those of DMSO treatment control in each cell line and data analyses were performed using PRISM4 software. IC50 data are expressed as the mean ±SD (normal; n = 3).
as §2, with “2 p53-dependent inhibition of” for “1 PG3 inhibits”, “is only observed at specific concentrations. (A–J)” for “and growth in a p53-indepent manner. (A–E)”, “ZMC1, CP-313908, APR-246, Ellipticine, Nutalin-3a” for “PG3, PG3-Oc (Oc), obatoclax (Ob), prodigiosin (P)”
Cells were seeded in 96-well plates (6 × 10^3 cells/well). Cells were treated with different concentrations of compounds or dimethyl sulfoxide (DMSO) as a control for 72 hours. The cell viability was assessed by CellTiterGlo bioluminescent cell viability assay (Promega), following the manufacturer’s protocol. Bioluminescence imaging was measured using the IVIS imager. The percentage of cell viability (mean ± SEM) at each dose was calculated against the respective DMSO control. The IC50 values were determined from the sigmoidal dose-response curves using GraphPad Prism.

The test system of data set [3] is SW480 cells carrying a p53-responsive luciferase reporter. The data set is described as follows: p53-responsive reporter assay. The following applies: 1.11 μM, 6 hour and 15 hour time points. It is filed as cell-based, human. In short, it runs like this:
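Mutant-p53 SW480 human colon cancer cells stably carrying a p53-responsive luciferase reporter, treated with compounds for 6 and 15 h. D-luciferin added to a final 100 μg/mL and luciferase activity imaged by IVIS to gauge restored p53-dependent transcription.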

The next data set relates to ATF4. Nature of the data set: Western blot, ATF4 induction. It is filed as cell-based, human. The following applies: five cancer cell lines, 24 h. The method in brief:
(§3)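 Cells treated with compounds for 24 h, then lysed. 15 μg protein separated by SDS-PAGE and immunoblotted. Bands detected by chemiluminescence.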

The test system of a further data set is DR5. Nature of the data set: Western blot, DR5 induction. It is filed as cell-based, human. The following applies: five cell lines, 24 h. The method in brief:
as §3

For another data set, the system named is p21. Nature of the data set: Western blot, p21 induction. It is filed as cell-based, human. The following applies: five cell lines, 24 h. The method in brief: as §3
Data set [4] concerns cleaved caspase-8, -3, cleaved PARP and PUMA in HT29, SW480 and HCT116 p53−/− cells. Nature of the data set: Western blot, apoptosis markers in PG3-treated cells. Type of data set: cell-based, human. As for the experimental part: Figure 5 PG3 induces apoptosis in p53-null and p53-mutant cancer cell lines. (A–E) Dose-response and time-course analysis of cleavage of caspase-8, -3, cleaved PARP and PUMA in PG3-treated HT29, SW480 and HCT116 p53^−/− cells by western blot using the indicated antibodies. (F–H) Flowcytometry analysis of cell death. (I) HT29 and HT29-PUMA^−/− and (J) SW480 cells were co-treated with PG3 and pan-caspase inhibitor Z-VAD-fmk for 48 h. (K) HCT116 p53^−/− cell were co-treated with PG3 and Z-VAD-fmk for 24 hours.
(§4) After treatment, protein lysates were collected for Western blot analysis. A total of 15 μg of protein was used for SDS-PAGE. After primary and secondary antibody incubations, the signal was detected by a chemiluminescence detection kit, imaged by Syngene (Imgen Technologies). Antibodies for NAG-1 (GDF15) and P53 were from Santa Cruz Biotechnology; for caspase 8, cleaved caspase 8, caspase 9, caspase 3, cleavage PARP, eIF2α, p-eIF2α (Ser51), CHOP, ATF4, DR5, and PUMA were from Cell Signaling Technology. Noxa and p21 were from Calbiochem. Ran was from BD Biosciences.

The test system of data set [5] is GCN2, PKR, eIF2α, ATF4, CHOP in HT29 cells. The data set is described as follows: Western blot, ISR kinases / eIF2α / ATF4 / CHOP. It is filed as cell-based, human. The following applies: HT29, 15 h. As for the experimental part:
Figure 7 PG3 induces upregulation of ATF4 through ISR via HRI. (A) HT29 cells were treated with PG3, GSK2606414, TG and ONC201 respectively, or co-treatment with PG3/GSK2606414, PG3/TG, and PG3/ONC201 for 15 h. (B) MEF, MEF^PERK−/− and MEF^GCN2−/− cells were treated with PG3 and ONC201 for 16 hours. (C) HT29 cells were transfected with siControl, siPKR, siHRI and siPKR/siHRI for 24 hours and then treated with PG3 for 16 hours. (D) HCT116 p53^−/− cells were transfected with siControl and siHRI for 24 hours and then treated with PG3 for 16 hours. (E) HCT116 p53^−/− cells were treated with PG3 and ONC201 for indicated times. (F) PANC1-sgCtrl, -sgHRI and -sgPKR cell lines were treated with PG3 and imipridones (ONC201, ONC206 and ONC212) for 16 hours. Western blot was performed using indicated antibodies. (G) Proposed model of PG3-induced cell apoptosis through HRI/ATF4/PUMA axis. Abbreviation: L.E.: Long exposure.
as §4
Supplementary Figure 2: ROS and NO are not responsible for PG3-induced HRI activation. (A, B) cells were pre-treated
with ZnPP, L-NMMA, SA and NAC for 2 hours respectively, and then ONC201 or PG3 was added to the medium for 24 hour treatment.
Western blot was performed using indicated antibodies.
(1 picture or pasted object on this page, not shown here)

Structures are written as SMILES.

In the case of `CCc1c(C)[nH]c(/C=C2\N=C(c3ccc[nH]3)C=C2OC)c1C` [PG3], the IC50 with HT29 (R273H) was 36 nM; in [1] (Homo sapiens, HFF-1, 72 h, CellTiterGlo, normal cells, read-out: IC50 values, HFF-l (WT)) it was 1050 nM; in data set [2], 2230 nM. Moreover, in [1] (HFF-1 normal cells), the “fold less toxic than PG3-Oc” value is 3.4 fold. In addition, the p53-responsive reporter activity entry in data set [3] was “do not activate reporter activity”. Also, the “upregulation of ATF4” value in the data set with ATF4 is “induce upregulation of ATF4”. Further, in the data set with DR5, the “upregulation of DR5” value is given as “consistently induce upregulation”. Besides, the “upregulation of p21” value in the data set on p21 is “consistently induce upregulation”. Further, the “time at which cleavage of PARP, caspase-8 and -3 occurs” value in data set [4] (HT29, HCT116 p53–/– and SW480) was 48 h. The “concentration sufficient to induce PUMA and activate cleaved caspase-8 and -3 and cleaved-PARP” value in [4] (HT29 and SW480 cells, dose-response) amounted to 0.5 µM. For the same compound, the caspase-9 activation result in data set [4] (HT29 cells) is given as “does not activate caspase-9”. For the same compound, in [4] (time-course), the “time at which PUMA protein is first induced” value was 24 h. For the same compound, the “phosphorylation of GCN2 and PKR” value in data set [5] is “does not increase phosphorylation”.

For the origin of these results see article PMC11407758, “Integrated stress response (ISR) activation and apoptosis through HRI kinase by PG3 and other p53 pathway-restoring cancer therapeutics” (Oncotarget, 2024).
